Experimental data: patent publication US8906344B2, “F-18 radiolabeled compounds for diagnosing and monitoring kidney function” (Kasina Laila Innova Pharmaceuticals Private Limited, priority 2012, dated 2014)
Like-named read-outs stand apart in the source and are kept apart here.

Tests used:
[1] = Limited organ bio-distribution in mice; type: in vivo, Female Swiss Albino mice; conditions: for Kidney (% ID) / Small Intestine (% ID) / Urine (% ID) / Liver (% ID): n=4
Description: Female Swiss Albino mice were randomized (4 animals per time-point) according to body weight on the day prior to the experimental date. Some of the selected compounds of formula (I) are evaluated for a limited bio-distribution study involving five selected organs of interest such as Blood, Liver, Small Intestines, Kidneys and Urine. Each compound was dissolved in a vehicle comprising of 10% N-methyl-2-pyrrolidone in sterile water to achieve a final strength of 1 mg/mL. The mixture was sonicated for 2 min to yield a clear solution. Compound was administered to mice via tail vein at a dose volume of 2 mL/kg in order to obtain a final dose of 2 mg/kg. […] Blood was collected from the retro-orbital plexus in K2-EDTA containing tubes, centrifuged, plasma harvested and stored at −80° C. until further analysis. Liver, kidneys (right and left), and small intestine were harvested, weighted, and stored at −80° C. The small intestine was flushed with normal saline prior to storage. Urine was collected directly from the bladder and stored at −80° C.
Liver, kidneys, and small intestine were homogenized in water at 20% w/v. The respective homogenates were mixed thoroughly and stored at −80° C. until further processing. An aliquot of 100 μL of plasma/tissue homogenate was transferred to a 1.5 mL micro centrifuge tube. Twenty five microliters of compound (5 μg/mL), hundred microliters of 1% formic acid and 750 μL of tert-butyl methyl ether were added and sample was vortexed for 3 min. After centrifugation of the sample at 12,000 rpm at 4° C. for 5 min, supernatant was removed and evaporated under nitrogen stream at 40° C. for an additional 10 min (nitrogen evaporator, Caliper Instruments USA). The residue was reconstituted with 125 μL of solution (acetonitrile:water 1:1) and 10 μL was injected into the chromatographic system. On similar lines, an aliquot of 50 μL of urine was transferred to a 1.5 mL micro centrifuge tube. One hundred and fifty microliters of compound (5 μg/mL), was added and sample was vortexed for 3 min. After centrifugation of the sample at 12,000 rpm at 4° C. for 5 min, supernatant was removed and 10 μL was subjected to LC-MS/MS (Thermo Quantum Ultra) for the analysis.
Analyte concentrations were determined by evaluating the peak area ratio of drug to internal standard against a standard curve. The standard curve was prepared by plotting the relationship between peak area ratio of analyte to internal standard against concentration of standard CC samples by using linear regression y=ax+b and putting the 1/x^2 as weighting factor.
Data were expressed as ng/g for liver, kidneys, and small intestine. Percent compound in tissues was calculated based on the absolute dose administered (mg/kg). Plasma concentrations as a percent of administered dose were extrapolated assuming a total blood volume of 6% body weight and a 60% yield (plasma from blood). Compound concentrations in urine were expressed as μg per total volume collected.

[2] = Plasma clearance in rats, single injection clearance method; conditions: for Plasma clearance: normal rats; for Clearance: rats, 2 mg/kg i.v. bolus tail vein, n=3, LC-MS/MS, noncompartmental
Description: The experiment for each compound was performed in isoflurane-anesthetized male SD rats (body weight 180-260 gm; n=3). Solution formulation of each compound was prepared in sterile water for injection with strength of 1 mg/mL. All solution formulations were prepared freshly prior to dosing. The dose volume for i.v bolus injection was 2 mL/kg. Three rats for each compound were administered intravenously (i.v.) bolus injection in tail vein at 2 mg/kg body weight. Blood samples were obtained at pre-dose (0 hr), 0.08, 0.17, 0.25, 0.5, 0.75, 1 and 2 hr post dosing. The blood samples (˜120 μL) were taken from the retro-orbital plexus into labelled micro centrifuge tubes, containing 10 μL of 2% w/v K2EDTA solution, as an anticoagulant. […] Bioanalysis of rat plasma samples were analysed with developed method for each analyte using LC-MS/MS (Waters, Xevo TQ-S). The pharmacokinetic parameters such as area under the curve (AUC), elimination half-life (T1/2), volume of distribution (Vss) and clearance (CL) were estimated using a noncompartmental model in Phoenix WinNonlin software, version 6.3.

[3] = literature, cited from earlier work; for Plasma clearance: known renal diagnostic agents
[4] = 15 min after injection, 2 mg/kg tail vein
[5] = 15 min after injection, 2 mg/kg tail vein, n=4, plasma extrapolated assuming blood volume 6% body weight, 60% yield
[6] = 60 min after injection, n=4, plasma extrapolated to blood

Row | Compound | Kidney (% ID) [1, 4] [% ID] | Small Intestine (% ID) [1, 4] [% ID] | Urine (% ID) [1, 4] [% ID] | Kidney (% ID) ([1]; 60 min after injection) | Small Intestine (% ID) ([1]; 60 min after injection) | retention in liver, small intestine and kidney (in words) ([1]; 15 min after injection) | Liver (% ID) [1, 4] [% ID] | Blood (% ID) [1, 5] [% ID] | Liver (% ID) ([1]; 60 min after injection) | Blood (% ID) [1, 6] [% ID] | Plasma clearance [2] [ml/min/100 g] | Clearance [2] [mL/min/100 g] | Plasma clearance [3] [ml/min/100 g] | clearance as percent of the clearance of 131I-OIH [3]
1 | Nc1ccc(C(=O)NCC(=O)O)c([18F])c1 [Compound 1, 2-(4-amino-2-(18)fluorobenzamido)acetic acid] | 0.51 ± 0.45 | 0.07 ± 0.08 | 87.76 ± 6.03 | 0.00 ± 0.00 | 0.00 ± 0.00 |  |  |  |  |  |  |  |  | 
2 | CC(=O)Nc1ccc(C(=O)NCC(=O)O)c([18F])c1 [Compound 2, 2-(4-Acetamido-2-(18)fluorobenzamido)acetic acid] | 1.19 ± 0.53 | 0.09 ± 0.04 | 84.42 ± 3.44 | 0.05 ± 0.09 | 0.02 ± 0.02 |  |  |  |  |  |  |  |  | 
3 | Nc1cc(C(=O)NCC(=O)O)ccc1[18F] [Compound 3, 2-(3-Amino-4-(18)fluorobenzamido)acetic acid] | 0.13 ± 0.01 | 0.04 ± 0.02 | 72.73 ± 1.91 | 0.00 ± 0.00 | 0.00 ± 0.00 | minimum retention | 0.08 ± 0.04 | 0.83 ± 0.02 | 0.00 ± 0.00 | 0.02 ± 0.02 | 2.78±0.19 | 2.78 ± 0.19 |  | 
4 | Nc1ccc(C(=O)NCC(=O)O)cc1[19F] [Compound 6, 2-(4-Amino-3-(18)fluorobenzamido)acetic acid] | 0.47 ± 0.20 | 0.11 ± 0.08 | 78.21 ± 4.79 | 0.01 ± 0.01 | 0.01 ± 0.01 | minimum retention | 0.08 ± 0.02 | 0.68 ± 0.38 | 0.02 ± 0.02 | 0.02 ± 0.01 | 3.48±0.63 | 3.48 ± 0.63 |  | 
5 | Nc1cccc([18F])c1C(=O)NCC(=O)O [Compound 8, 2-(2-Amino-6-(18)fluorobenzamido)acetic acid] | 0.91 ± 0.40 | 0.10 ± 0.09 | 87.51 ± 4.14 | 0.02 ± 0.03 | 0.01 ± 0.01 |  |  |  |  |  |  | 1.55 ± 0.10 |  | 
6 | C[C@H](NC(=O)c1ccc(N)cc1[18F])C(=O)O [Compound 10, (S)-2-(4-Amino-2-(18)fluorobenzamido)propanoic acid] | 0.09 ± 0.04 | 0.01 ± 0.01 | 83.59 ± 8.82 | 0.00 ± 0.00 | 0.00 ± 0.00 | minimum retention | 0.21 ± 0.05 | 0.50 ± 0.27 | 0.05 ± 0.07 | 0.01 ± 0.00 | 3.25±0.13 | 3.25 ± 0.13 |  | 
7 | C[C@@H](NC(=O)c1ccc(N)cc1[18F])C(=O)O [Compound 11, (R)-2-(4-Amino-2-(18)fluorobenzamido)propanoic acid] | 0.06 ± 0.02 | 0.09 ± 0.05 | 82.31 ± 9.60 | 0.01 ± 0.02 | 0.00 ± 0.00 | minimum retention | 0.02 ± 0.03 | 0.94 ± 0.53 | 0.00 ± 0.00 | 0.12 ± 0.17 | 3.36±0.41 | 3.36 ± 0.41 |  | 
8 | O=C(O)CNC(=O)c1ccccc1[131I] [Compound I-131, I-131-ortho iodohippuran] |  |  |  |  |  |  |  |  |  |  |  |  | 2.17 | 
9 | Tc-99m MercaptoAcetylGlycylGlycylGlycine [Tc-99m MAG-3] |  |  |  |  |  |  |  |  |  |  |  |  | 2.84 | 50%-60%
